# Measurements from patent US10653717B2, “Antibiotic compositions” (priority 2016, dated 2020).
# Key:
# [1] = tested on: KP-2: K. pneumonia subsp. pneumonia 0322#; assay: MIC of silver with antibiotics on clinical isolated MDR Gram-negative bacteria; format: cell-based, Klebsiella pneumonia; details: antibiotic 4 μM
# Procedure: (§1) There are five clinically most difficult-to-treat MDR Gram-negative pathogen species: Klebsiella pneumonia, Acinetobacter baumannii, Pseudomonas aeruginosa, Enterobacter cloacae and Escherichia coli. One strain from each species was isolated, and overnight cultures were diluted 1:1000 times in LB medium, and treated with serial concentrations of Ag^+ and antibiotics in combinations for 24 h (Table 10).
# (§2) Five clinical isolated MDR Gram-negative strains were grown until an OD600 nm of 0.4, and were diluted 1:1,000 into 100 μl LB medium in 96 micro-well plates. […] The cultures treated with the same serial dilutions of 100 μl ebselen and silver nitrate were used as the positive control.
# ECO-2: E. coli 2219# = assay: Drug sensitivity of clinical isolated strain; format: cell-based, Escherichia coli; details: ECO-2 (Table 3); further: key: R: resistant; S: sensitive
# [2] = tested on: AB-1: Acinetobacter baumannii H#; assay: MIC of silver with antibiotics on clinical isolated MDR Gram-negative bacteria; format: cell-based; details: antibiotic 4 μM
# Procedure: as §1, §2
# [3] = tested on: PA-1: Pseudomonas aeruginosa 1298#; assay: as above; format: cell-based; details: antibiotic 4 μM
# Procedure: as §1, §2
# [4] = tested on: ECO-1: Escherichia coli 1139#; assay: as above; format: cell-based; details: antibiotic 4 μM
# Procedure: as §1, §2
# ECO-3: E. coli ZY-1 = assay: Drug sensitivity of clinical isolated strain; format: cell-based, Escherichia coli; further: key: R: resistant; S: sensitive
# [5] = tested on: ECO-1: Escherichia coli 1139#; assay: Drug sensitivity of clinical isolated strain; format: cell-based; further: key: R: resistant; S: sensitive
# ECL-2: E. cloacae 2301# [6] = assay: Drug sensitivity of clinical isolated strain; format: cell-based, Enterobacter cloacae; further: key: R: resistant; S: sensitive
# [7] = tested on: KP-1: Klebsiella pneumonia subsp. pneumonia 13#; assay: Drug sensitivity of clinical isolated strain; format: cell-based; details: KP-1 (Table 3); further: key: R: resistant; S: sensitive
# [8] = tested on: AB-1: Acinetobacter baumannii H#; assay: Drug sensitivity of clinical isolated strain; format: cell-based; further: key: R: resistant; S: sensitive
# [9] = tested on: ECL-1: Enterobacter cloacae 0431#; assay: Drug sensitivity of clinical isolated strain; format: cell-based; details: ECL-1 (Table 3); further: key: R: resistant; S: sensitive
# AB-2: A. baumannii 0361# = assay: Drug sensitivity of clinical isolated strain; format: cell-based, Acinetobacter baumannii; details: AB-2 (Table 3); further: key: R: resistant; S: sensitive
# [10] = tested on: PA-1: Pseudomonas aeruginose 1298#; assay: Drug sensitivity of clinical isolated strain; format: cell-based, Pseudomonas aeruginosa; further: key: R: resistant; S: sensitive
# E. coli = assay: Degree of synergy, Bliss Independence Model; format: cell-based, Escherichia coli; details: 5 μM AgNO3 with 80 μM antibiotic; 1 and 4 h
# [11] = tested on: PA-2: P. aeruginose 0009#; assay: Drug sensitivity of clinical isolated strain; format: cell-based, Pseudomonas aeruginosa; details: PA-2 (Table 3); further: key: R: resistant; S: sensitive
# [12] = tested on: KP-2: K. pneumonia subsp. pneumonia 0322#; assay: Drug sensitivity of clinical isolated strain; format: cell-based, Klebsiella pneumonia; further: key: R: resistant; S: sensitive
# wild type E. coli DHB4 = assay: MIC of nine antibiotics and silver in combinations on E. coli DHB4; format: cell-based, Escherichia coli; details: 24 h
# Procedure: E. coli DHB4 overnight cultures were diluted 1:1000 times in Luria Bertani (LB) medium, and treated with serial dilutions of ionic silver (Ag^+) as a nitrate salt and 9 antibiotics in combinations, separately, for 24 h.
# E. coli DHB4 from frozen stock were grown overnight at 37° C., 400 rpm. The overnight culture was diluted 1:100 with 5 ml of LB medium in 15 ml tubes and incubated at 37° C. at 400 rpm. Cells were grown until an OD600 nm of 0.4 and were used for antibiotic treatment. Briefly, cells were diluted 1:1,000 into 100 μl of LB medium in 96 micro-well plates. […] The minimum inhibition concentration (MIC) was determined as the lowest concentration of drugs that inhibited 90% of growth compared to the untreated cells after 24 h culture at 37° C. The cultures treated with the same serial dilutions of 100 μl ebselen and silver nitrate were used as the positive control.
# GSH = GSH amount in treated E. coli cell extracts, GR-coupled DTNB reduction; format: cell-based, Escherichia coli; details: 5 μM Ag^+ and 80 μM antibiotic; 10 min; compared with antibiotics themselves
# ECL-2: E. cloacae 2301# [13] = assay: MIC of silver with antibiotics on clinical isolated MDR Gram-negative bacteria; format: cell-based, Enterobacter cloacae; details: antibiotic 4 μM
# Procedure: as §1, §2
Molecule,MIC of silver in the presence of different antibiotics [1] [µM],Drug sensitivity (ECO-2: E. coli 2219#),MIC of silver in the presence of different antibiotics [2] [µM],MIC of silver in the presence of different antibiotics [3] [µM],MIC of silver in the presence of different antibiotics [4] [µM],Drug sensitivity (ECO-3: E. coli ZY-1; E. coli ZY-1 (Table 7)),Drug sensitivity (ECO-3: E. coli ZY-1; ECO-3 (Table 3)),Drug sensitivity ([5]; ECO-1 (Table 3)),Drug sensitivity ([5]; ECO-1 (table of Example 3)),Drug sensitivity (ECL-2: E. cloacae 2301# [6]; ECL-2 (Table 3)),Drug sensitivity (ECL-2: E. cloacae 2301# [6]; ECL-2 (table of Example 3)),Drug sensitivity [7],Drug sensitivity ([8]; AB-1 (Table 3)),Drug sensitivity ([8]; AB-1 (table of Example 3)),Drug sensitivity [9],Drug sensitivity (AB-2: A. baumannii 0361#),Drug sensitivity ([10]; PA-1 (Table 3)),Drug sensitivity ([10]; PA-1 (table of Example 3)),Drug sensitivity [11],MIC of silver in the presence of different antibiotics (ECL-2: E. cloacae 2301# [13]) [µM],other results
Gentamicin,160,R,80,40,40,S,S,S,S,R,R,R,R,R,R,R,S,S,R,160,degree of synergy with Ag^+ (Bliss model) (E. coli): synergistic combinations; Drug sensitivity ([12]; KP-2 (Table 3)): R; Drug sensitivity ([12]; KP-2 (table of Example 3)): R; Antibacterial effect as MIC of antibiotic and silver (wild type E. coli DHB4; listed as head Silver (μM) 0): 40 µM; Antibacterial effect as MIC of antibiotic and silver (wild type E. coli DHB4; listed as head Silver (μM) 1): 20 µM; Antibacterial effect as MIC of antibiotic and silver (wild type E. coli DHB4; listed as head Silver (μM) 2): 2.5 µM; Antibacterial effect as MIC of antibiotic and silver (wild type E. coli DHB4; listed as head Silver (μM) 4): 1.25 µM; activity with silver on E. coli DHB4 growth (wild type E. coli DHB4; serial dilutions of Ag^+ and antibiotic): synergistic activity; total GSH amount in cell extracts (GSH): slightly deplete
NC[C@H]1O[C@H](O[C@H]2[C@H](O)[C@@H](O[C@H]3O[C@H](CO)[C@@H](O)[C@H](N)[C@H]3O)[C@H](N)C[C@@H]2N)[C@H](O)[C@@H](O)[C@@H]1O [Kanamycin],160,,80,80,40,,,,,,,,,,,,,,,160,
CN[C@@H]1[C@@H](O)[C@@H](O[C@@H]2[C@@H](O)[C@H](O[C@H]3O[C@H]([C@@H](C)O)[C@@H](O)[C@H](O)[C@H]3N)[C@@H](N)C[C@H]2N)OC[C@]1(C)O [Geneticin],160,,80,80,40,,,,,,,,,,,,,,,160,
CN(C)[C@@H]1C(O)=C(C(N)=O)C(=O)[C@@]2(O)C(O)=C3C(=O)c4c(O)cccc4[C@@](C)(O)[C@H]3C[C@@H]12 [Tetracycline],,S,80,80,80,R,S,R,R,R,R,,R,R,R,R,R,R,R,,
CC(C)(O/N=C(\C(=O)N[C@@H]1C(=O)N2C(C(=O)[O-])=C(C[n+]3ccccc3)CS[C@H]12)c1csc(N)n1)C(=O)O [Ceftazidime],,R,,,,S,S,R/S,R/S,R,R,R,R,R,R,R,R,R,R,,Drug sensitivity ([12]; KP-2 (Table 3)): R; Drug sensitivity ([12]; KP-2 (table of Example 3)): R
